Experimental findings from the SangsterLogP compilation are described below.

One data set can be described thus: method code SF-GLC, from DOI: 10.1016/s0045-6535(02)00841-x, PMID: 12615110.
Details: not given
A word on the logP: it is the decadic logarithm of the partition coefficient of the neutral form, usually between octanol and water. Low readings indicate a more hydrophilic compound, high ones a more lipophilic compound. Turning to `Brc1ccc(Oc2cc(Br)c(Br)cc2Br)c(Br)c1`, the lipophilicity (logP) came out at 7.32.

Take `Brc1ccc(Oc2ccccc2Br)c(Br)c1`: the logP was determined as 5.74.

In turn, `Brc1cc(Br)c(Oc2cc(Br)c(Br)cc2Br)cc1Br` registered a logP of 7.9.

As for `Brc1ccc(Oc2ccc(Br)cc2Br)cc1`, the logP amounted to 5.94.

`Brc1ccc(Oc2ccc(Br)c(Br)c2Br)c(Br)c1` came in with a logP of 7.37.

A short description of the next data set: method code SF-AS, from DOI: 10.1007/bf00165040, PMID: 3033523. To be noted: pH 7.4.
What is called logD is the decadic logarithm of the distribution of all forms, ionised or not, between an organic phase and buffer at a given pH. Low values mean a more hydrophilic compound, high ones a more lipophilic compound. Consider `CC(C)(C)Sc1nc2c(N)ncnc2n1C1OC2COP(=O)(Oc3ccccc3)OC2C1O` (stereo unspecified), for which the logD came out at 2.05.

With `Nc1ncnc2c1nc(Sc1ccc(Cl)cc1)n2C1OC2COP(=O)(OCc3ccccc3)OC2C1O` (stereo unspecified), the logD stood at 2.24.

Regarding `Nc1ncnc2c1nc(SCc1ccccc1)n2[C@@H]1O[C@@H]2COP(=O)(O)O[C@H]2[C@H]1O`, the logD is -1.15.

`Nc1ncnc2c1nc(Br)n2C1OC2COP(=O)(Oc3ccccc3)OC2C1O` (stereo unspecified) came in with a log distribution coefficient (logD) of 1.58.

In turn, `CSc1nc2c(N)ncnc2n1C1OC2COP(=O)(OCc3ccccc3)OC2C1O` (stereo unspecified) displayed a pH-dependent lipophilicity (logD) of 1.62.

On to `Nc1ncnc2c1nc(Sc1ccccc1)n2C1OC2COP(=O)(OCc3ccccc3)OC2C1O` (stereo unspecified), for which the logD turned out to be 1.92.

A further data set is described as follows: method code SF, from DOI: 10.1002/jps.2600830714, PMID: 7965679.
Details: not given
For the compound `CO[C@H]1O[C@H](CO)[C@@H](O)[C@H](O)[C@H]1NC(=O)CNC(=O)N(CCCl)N=O`, the logP is -1.04.

As to `O=NN(CCCl)C(=O)NCC(=O)NC1C(O)OC(CO)C(O)C1O` (stereo unspecified), the logP was -1.1.

Experiment in the next data set: not given
Details: not given
As for `CC(=O)Nc1c(I)c(C(=O)N(C)CC(O)CO)c(I)c(C(=O)N(C)CC(O)CO)c1I` (stereo unspecified), the log partition coefficient (logP) was -2.14.

Take `CC(=O)Nc1c(I)c(C(=O)NC(CO)CO)c(I)c(C(=O)NC(CO)CO)c1I`: the log partition coefficient (logP) is -2.22.

For `CC(=O)N(CCO)c1c(I)c(C(=O)N(C)CC(O)CO)c(I)c(C(=O)N(C)CC(O)CO)c1I` (stereo unspecified), the logP was -2.33.

Turning to `CC(=O)N(CCO)c1c(I)c(C(=O)NCC(O)CO)c(I)c(C(=O)NCC(O)CO)c1I` (stereo unspecified), the logP was -2.4.

Turning to `CC(=O)N(CC(O)CO)c1c(I)c(C(=O)NCCO)c(I)c(C(=O)NCCO)c1I` (stereo unspecified), the logP is -1.84.

Regarding `CC(=O)N(C)c1c(I)c(C(=O)NCC(O)CO)c(I)c(C(=O)NCC(O)CO)c1I` (stereo unspecified), the lipophilicity (logP) is -2.13.

Experiment in a further data set: not given
Details: not given
This is another data set of the same source.
In turn, `OC(CCCN1CCC(O)(c2ccc(Cl)cc2)CC1)c1ccc(F)cc1` (stereo unspecified) had a logP of 3.26.

As for `OC1(c2ccc(Cl)cc2)CCN(CCCSc2ccc(F)cc2)CC1`, the logP was 4.17.

For `O=C(CCN1CCC(O)(c2ccc(Cl)cc2)CC1)c1ccc(F)cc1`, the logP turned out to be 3.24.

`CC(C)c1ccc(C(=O)CCCN2CCC(O)(c3ccc(Cl)cc3)CC2)cc1`: the log partition coefficient (logP) came to 4.2.

In the case of `O=C(CCCCN1CCC(O)(c2ccc(Cl)cc2)CC1)c1ccc(F)cc1`, the log partition coefficient (logP) came to 3.81.

In turn, `O=C(CCCCCN1CCC(O)(c2ccc(Cl)cc2)CC1)c1ccc(F)cc1` returned a logP of 4.16.

Another data set can be described thus: method code SF-AS, from DOI: 10.1016/0147-6513(87)90041-8, PMID: 3830021.
Details: not given
`CCCCC(CC)Cn1c(O)c(C#N)c(C)c(/N=N/c2ccccc2[N+](=O)[O-])c1=O` (stereo unspecified): the logP was 4.5.

On to `CC(=O)Nc1cc(NCC(C)O)c(Cl)cc1/N=N/c1ccc([N+](=O)[O-])cc1Cl` (stereo unspecified), for which the logP came to 4.

In turn, `CCCCn1c(=O)c2c(N)c3c(=O)c4ccccc4c(=O)c3c(N)c2c1=O` returned a logP of 4.

In turn, `CCCCN(CCOC(C)=O)c1ccc(/N=N/c2c(C#N)cc([N+](=O)[O-])cc2C#N)c(C)c1` displayed a logP of 4.

As for `CCn1c(O)c(C#N)c(C)c(/N=N/c2ccc(Cl)cc2[N+](=O)[O-])c1=O`, the log partition coefficient (logP) was determined as 3.4.

In turn, `N#CCCN(CCO)c1ccc(/N=N/c2ccc([N+](=O)[O-])cc2Cl)cc1` gave a logP of 3.9.

The next data set can be described thus: method code SF-AS, from Dallet, P.; Dubost, J.; Colleter, J.; Audry, E.; Creuzet, M. (1985). QSAR in a series of alpha-adrenolitic molecules: optimization of physicochemical parameters. Eur J Med Chem, 20(6)551-557.
Details: not given
`Cc1cc(OCCN(C)C)c(C(C)C)cc1OC1CCCCC1=O` (stereo unspecified): the logP amounted to 3.63.

As to `Cc1cc(OCCN(C)C)c(C(C)C)cc1O`, the logP turned out to be 2.93.

In the case of `CC(=O)Oc1cc(C(C)C)c(OCCN(C)C)cc1C`, the logP was found to be 3.17.

In turn, `CNCCOc1cc(C)c(O)cc1C(C)C` gave a logP of 2.35.

In turn, `Cc1ccc(C(C)C)c(OCCN(C)C)c1` came in with a lipophilicity (logP) of 3.79.

For the compound `COc1cccc(OC)c1OCCN(C)CCOc1cc(C)c(O)cc1C(C)C`, the lipophilicity (logP) came out at 3.12.

Experiment in the next data set: not given
Details: not given
The source holds these as a separate data set.
With `Nc1ccccc1Cl`, the logP was 1.74.

Another data set is described as follows: method code SF-AS, from DOI: 10.1007/bf02877675, PMID: 411721.
Details: not given
With `N#CC(C#N)=NNc1ccccc1Cl`, the logP is 2.65.

`N#CC(C#N)=NNc1ccc(Cl)cc1` came in with a lipophilicity (logP) of 3.08.

`CC(=O)c1ccc(NN=C(C#N)C#N)cc1` showed a logP of 2.17.

In turn, `N#CC(C#N)=NNc1ccc(Cl)c(Cl)c1` yielded a logP of 3.42.

As for `N#CC(C#N)=NNc1ccc([N+](=O)[O-])cc1`, the logP amounted to 2.34.

For the compound `N#CC(C#N)=NNc1ccc(Br)cc1`, the log partition coefficient (logP) is 3.38.

Another data set is described as follows: method code SF-AS, from DOI: 10.1016/0021-9673(91)80064-n.
Details: not given
As to `C=CC(=O)NCCc1c[nH]cn1`, the log partition coefficient (logP) was -0.21.

`C=CC(=O)NCCCN1CCSCC1`: the log partition coefficient (logP) was 0.54.

Consider `C=CC(=O)NCCCN(CCO)CCO`, for which the logP was -0.6.

Consider `C=CC(=O)NCCCN(CC)CC`, for which the log partition coefficient (logP) worked out at 0.72.

For the compound `C=CC(=O)NCCN(C)C`, the logP was -0.25.

`C=CC(=O)NCCCN(C)C` came in with a logP of 0.

The next data set is described as follows: method code SF, from DOI: 10.1016/0360-3016(89)90912-7, PMID: 2703384. To be noted: pH 7.4.
Turning to `O=[N+]([O-])c1cn(CC(F)(F)CO)cn1`, the logD is -0.21.

Regarding `COCCNC(=O)C(F)(F)Cn1ccnc1[N+](=O)[O-]`, the logD is -0.15.

`COCC(F)Cn1ccnc1[N+](=O)[O-]` (stereo unspecified) yielded a logD of 0.18.

As for `O=[N+]([O-])c1cn(CC(O)CF)cn1` (stereo unspecified), the logD is -0.44.

For `O=C(Cn1cnc([N+](=O)[O-])c1)NCCO`, the pH-dependent lipophilicity (logD) is -0.46.

Take `O=[N+]([O-])c1nccn1CC(F)(F)CO`: the logD was 0.04.

Experiment in another data set: not given
Details: not given
This is another data set of the same source.
For the compound `CCCN1C(=O)NC(c2ccccc2)(c2ccccc2)C1=O`, the logP is 2.86.

As to `CCCCCCCN1C(=O)NC(c2ccc(Br)cc2)(c2ccc(Br)cc2)C1=O`, the logP is 6.95.

The compound `CCCCCCN1C(=O)NC(Cc2c[nH]c3ccccc23)C1=O` (stereo unspecified) came in with a log partition coefficient (logP) of 3.13.

For the compound `O=C1NC(c2ccc(Br)cc2)(c2ccc(Br)cc2)C(=O)N1CCN1CCOCC1`, the logP stood at 4.59.

Consider `CCCCCCN1C(=O)NC(c2ccc(Br)cc2)(c2ccc(Br)cc2)C1=O`, for which the logP worked out at 6.39.

With `O=C1NC(Cc2c[nH]c3ccccc23)C(=O)N1Cc1cccc2ccccc12` (stereo unspecified), the lipophilicity (logP) turned out to be 3.03.

A further data set in a line: method code SF-AS, from DOI: 10.1021/jm00223a031, PMID: 810572.
Details: not given
Take `Cc1ccc(O)c2ncccc12`: the lipophilicity (logP) is 2.37.

Consider `Cc1ccnc2c(O)ccc(O)c12`, for which the lipophilicity (logP) stood at 1.59.

Regarding `Cc1ccnc2c(O)ccc(C)c12`, the log partition coefficient (logP) worked out at 2.71.

`Oc1ccnc2c(O)cccc12` came in with a lipophilicity (logP) of 0.62.

In the case of `Nc1ccc(O)c2ncccc12`, the logP is -0.11.

`COc1ccc(O)c2nccc(C)c12` yielded a logP of 2.75.

The next data set is described as follows: method code SF-AS, from PMID: 3699148. To be noted: pH 7.4.
`CC(O)CNc1ccccc1C(N)=O` (stereo unspecified) showed a logD of 0.62.

In turn, `Cc1ccccc1OCCNc1ccccc1C(N)=O` displayed a log distribution coefficient (logD) of 2.94.

Turning to `CCCCOCCNc1ccc(Cl)cc1C(N)=O`, the log distribution coefficient (logD) came out at 2.99.

With `CCCCOCCNc1ccccc1C(N)=O`, the pH-dependent lipophilicity (logD) is 2.27.

On to `NC(=O)c1ccccc1NCC(O)CO` (stereo unspecified), for which the logD is -0.8.

`NC(=O)c1ccccc1NCCCO` returned a logD of 0.7.

A further data set in a line: method code SF-RC, from DOI: 10.1021/jm301492y, PMID: 23214511. To be noted: pH 7.4.
For `O=C(NC1CCCC1)c1ccc(O)c(-c2ccccc2)c1`, the logD was determined as 2.8.

`O=C(NC1CCC1)c1ccc(O)c(-c2ccccc2)c1`: the pH-dependent lipophilicity (logD) was found to be 3.42.

As to `O=C(NC1CCCC1)c1cccc(C2=NCCO2)c1`, the pH-dependent lipophilicity (logD) is 2.35.

On to `O=C(NC1CCCCC1)c1cccc(C2=NCCO2)c1`, for which the logD came to 3.01.

`CCCCCCNC(=O)c1cccc(C2=NCCO2)c1` displayed a logD of 3.33.

`NC(=O)c1cccc(-c2cccc(C(=O)NC3CCCCC3)c2)c1` displayed a log distribution coefficient (logD) of 3.61.

Another data set can be described thus: method code SF-RC, from DOI: 10.1016/j.nucmedbio.2006.06.006, PMID: 16934700. Particulars: pH 7.4.
As for `CN(C)c1ccc(-c2cc3ccccc3s2)cc1`, the logD stood at 3.44.

As for `Nc1ccc(-c2cc3ccccc3s2)cc1`, the logD was determined as 2.87.

With `FCCOc1ccc(-c2cc3ccccc3s2)cc1`, the logD is 2.83.

The compound `FCCNc1ccc(-c2cc3ccccc3s2)cc1` displayed a pH-dependent lipophilicity (logD) of 3.46.

With `Oc1ccc(-c2cc3ccccc3s2)cc1`, the logD was 2.99.

`CNc1ccc(-c2cc3ccccc3s2)cc1`: the logD is 3.2.
